Results reported in ChEMBL document CHEMBL2375303, “Molecular determinants for nuclear receptors selectivity: chemometric analysis, dockings and site-directed mutagenesis of dual peroxisome proliferator-activated receptors α/γ agonists” (Eur J Med Chem, 2013).

Experiments:
Format in all cases: cell-based
[1] = molecular target: T1, Peroxisome proliferator-activated receptor alpha (Homo sapiens, UniProt Q07869); experiment: Agonist activity at GAL4-fused PPARalpha (unknown origin) expressed in human HepG2 cells by transactivation assay
T1 sequence (Q07869 whole entry): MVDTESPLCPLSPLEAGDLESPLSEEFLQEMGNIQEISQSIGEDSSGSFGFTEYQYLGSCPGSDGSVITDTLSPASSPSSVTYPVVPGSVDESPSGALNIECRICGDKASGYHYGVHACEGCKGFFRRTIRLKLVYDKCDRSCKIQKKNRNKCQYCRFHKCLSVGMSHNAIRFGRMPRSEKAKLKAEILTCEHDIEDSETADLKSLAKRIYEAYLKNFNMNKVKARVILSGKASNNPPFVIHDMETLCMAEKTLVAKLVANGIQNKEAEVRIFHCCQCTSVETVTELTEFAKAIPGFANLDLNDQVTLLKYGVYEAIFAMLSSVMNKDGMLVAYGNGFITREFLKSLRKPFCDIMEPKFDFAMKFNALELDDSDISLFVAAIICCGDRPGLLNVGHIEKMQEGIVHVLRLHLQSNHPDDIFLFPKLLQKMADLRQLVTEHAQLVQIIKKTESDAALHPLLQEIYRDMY

[2] = molecular target: T2, Peroxisome proliferator-activated receptor gamma (Homo sapiens, UniProt P37231); experiment: Agonist activity at GAL4-fused PPARgamma (unknown origin) expressed in human HepG2 cells by transactivation assay
T2 sequence (P37231 whole entry): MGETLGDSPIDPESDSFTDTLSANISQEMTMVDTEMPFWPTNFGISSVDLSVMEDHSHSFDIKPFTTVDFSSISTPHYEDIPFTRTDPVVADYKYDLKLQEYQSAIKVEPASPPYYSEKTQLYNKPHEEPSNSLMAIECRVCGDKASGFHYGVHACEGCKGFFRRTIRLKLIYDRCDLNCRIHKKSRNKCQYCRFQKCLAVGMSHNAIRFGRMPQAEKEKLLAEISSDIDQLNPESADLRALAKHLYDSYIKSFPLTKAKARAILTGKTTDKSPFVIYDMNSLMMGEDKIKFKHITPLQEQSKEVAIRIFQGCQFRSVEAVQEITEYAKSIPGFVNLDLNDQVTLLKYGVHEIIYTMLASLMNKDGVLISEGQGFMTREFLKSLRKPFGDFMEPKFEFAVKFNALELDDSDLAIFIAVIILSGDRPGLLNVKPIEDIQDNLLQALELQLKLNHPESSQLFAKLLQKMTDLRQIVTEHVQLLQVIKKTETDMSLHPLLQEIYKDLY

[3] = Agonist activity at GAL4-fused PPARgamma M463A mutant (unknown origin) expressed in human HepG2 cells by transactivation assay
[4] = molecular target: Peroxisome proliferator-activated receptor alpha (Homo sapiens, UniProt Q07869, A454M); experiment: Agonist activity at GAL4-fused PPARalpha A454M mutant (unknown origin) expressed in human HepG2 cells by transactivation assay
Chain of Peroxisome proliferator-activated receptor alpha (Homo sapiens, UniProt Q07869, A454M) (Q07869 whole entry A454M, the tested form may be a part): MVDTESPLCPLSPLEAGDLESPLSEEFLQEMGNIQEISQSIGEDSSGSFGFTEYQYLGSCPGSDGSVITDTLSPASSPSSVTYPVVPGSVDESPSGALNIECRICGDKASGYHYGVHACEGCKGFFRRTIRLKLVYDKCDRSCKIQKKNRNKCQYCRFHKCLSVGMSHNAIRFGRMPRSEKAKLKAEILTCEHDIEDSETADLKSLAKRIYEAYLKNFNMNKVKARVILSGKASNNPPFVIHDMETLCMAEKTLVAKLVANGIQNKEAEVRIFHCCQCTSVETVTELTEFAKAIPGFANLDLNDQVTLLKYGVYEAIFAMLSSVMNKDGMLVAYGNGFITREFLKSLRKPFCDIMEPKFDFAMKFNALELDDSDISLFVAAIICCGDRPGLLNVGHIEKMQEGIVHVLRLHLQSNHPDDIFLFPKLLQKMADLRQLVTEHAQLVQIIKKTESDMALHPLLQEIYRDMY

Row | SMILES | EC50 ([1]; read-out: pEC50 (converted)) [nM] | EC50 ([2]; read-out: pEC50 (converted)) [nM] | EC50 ([1]; read-out: EC50) [nM] | EC50 [3] [nM] | EC50 ([2]; read-out: EC50) [nM] | EC50 [4] [nM]
1 | O=C(O)[C@H](CCc1ccccc1)Oc1ccc(Cl)cc1 | 2400 | 7080 |  |  |  | 
2 | O=C(O)[C@H](CCCc1ccccc1)Oc1ccc(Cl)cc1 | 589 | 912 |  |  |  | 
3 | O=C(O)[C@H](CCCc1ccc(Cl)cc1)Oc1ccc(Cl)cc1 | 631 | 316 |  |  |  | 
4 | O=C(O)[C@H](COc1ccccc1)Oc1ccc(Cl)cc1 | 2510 | 1660 |  |  |  | 
5 | O=C(O)[C@H](CCOc1ccccc1)Oc1ccc(Cl)cc1 | 3020 | 1260 |  |  |  | 
6 | O=C(O)[C@H](Cc1ccccc1)Oc1ccc(Oc2ccccc2)cc1 | 891 | 1580 |  |  |  | 
7 | O=C(O)[C@H](Cc1ccccc1)Oc1ccc(-c2ccc(Cl)cc2)cc1 | 3890 | 8910 |  |  |  | 
8 | O=C(O)[C@H](Cc1ccc(C(F)(F)F)cc1)Oc1ccc(Cl)cc1 | 3630 | 417 |  |  |  | 
9 | O=C(O)[C@H](Cc1ccc(Oc2ccccc2)cc1)Oc1ccc(Cl)cc1 | 871 | 26.9 | 3900 | 340 | 320 | 900
10 | O=C(O)[C@H](Cc1ccc(-c2ccccc2)cc1)Oc1ccc(Cl)cc1 | 1120 | 49 |  |  |  | 
11 | O=C(O)[C@H](Cc1ccc(-c2cccs2)cc1)Oc1ccc(Cl)cc1 | 589 | 64.6 |  |  |  | 
12 | O=C(O)[C@H](Cc1ccccc1)Oc1ccc(Cc2ccccc2)cc1 |  |  | 40 | 470 | 600 | 400
13 | CN(CCOc1ccc(CC2SC(=O)NC2=O)cc1)c1ccccn1 (stereo unspecified) [ROSIGLITAZONE] |  |  |  | 2 |  | 
